Reference: patent US20240277715A1, “COMBINATION THERAPIES COMPRISING A METTL3 INHIBITOR AND A FURTHER ANTICANCER AGENT” (Storm Therapeutics Limited, priority 2021, published 2024)
Like-named read-outs stand apart in the source and are kept apart here.

What was measured:
Kasumi1 AML cell line = experiment: AML cell viability, CellTiter-Glo combination matrix, Kasumi1; format: cell-based; settings: for IC50: Homo sapiens, Kasumi 1, Kasumi1 cells
Procedure: (§1) The sensitivity of AML cell lines to combinations of METTL3 inhibitor and standards of care was determined as described. Dose response curves of venetoclax were determined either alone or in the presence of different concentrations of METTL3 inhibitor that are known to be active in cells.
(§2) Synergistic interactions occur when the IC50 value decreases in the presence of METTL3 inhibitor. […] Antagonistic interactions occur when the IC50 value increases in the presence of METTL3 inhibitor.
(§3) 24 h before cell treatment, homogenize, stain with Trypan blue and count viable cells using CellOMeter Auto T4. Dilute cells in media at 400 000 cells/ml to ensure an exponential growth the day after.
(§4) On treatment day, homogenize, stain with Trypan blue and count viable cells using CellOMeter Auto T4. Dilute to the proper cell seeding density according to Table 6 in cell media.
(§5) • Dispense drug (see Table 7) and METTL3 inhibitor in semi-log dose-response matrix and DMSO in 384-well plates using D300e Nanodispenser (Tecan). • 6× compound solution preparation: add 40 μL of cell medium in compound-containing plates and homogenize using the ViaFlo device (Integra) • Dispense 30 μl of cell suspension per well in three replicate 384-well white Ultra-Low-Attachment plates (Sbio) using ViaFlow device (Integra) • Transfer 6 μL of the 6× compound solution in each 30 μL cell suspension-containing plate. • Incubate at 37° C. 5% CO2 for 3 to 5 days.
(§6) • Add 35 μL CellTiter-Glo (Promega) in wells (vol/vol) using ViaFlo device (Integra). • Incubate at RT 10 min in the dark, with agitation the first minute, and read luminescence on the Ensight device (Perkin Elmer).
(§7) Raw data were converted to % viability by normalization to DMSO controls. IC50 determination was performed using GraphPad Prism and fitting curves to the standard nonlinear regression four parameter equation (Y=Bottom+(Top-Bottom)/(1+(IC50/X)^HillSlope)) least squares method, and synergy was assessed by comparison of IC50 values of the standard of care in the presence or absence of different concentrations of METTL3 inhibitor (see FIGS. 12 to 19).

AML = settings: cited from earlier work
MOLM13 AML cell line = experiment: AML cell viability, CellTiter-Glo combination matrix, MOLM13; format: cell-based; settings: for interaction with venetoclax: MOLM13 AML cell line
Procedure: as §1, §2, §3, §4, §5, §6, §7

[1] = test system: FLT3-mutant MOLM-14 AML cell line; experiment: AML cell viability, CellTiter-Glo combination matrix, MOLM-14; format: cell-based
Procedure: as §3, §4, §5, §6
Raw data were converted to % viability by normalization to DMSO controls.

[2] = test system: SKOV3 human ovarian cancer cells; experiment: Tumour killing assay (TKA), SKOV3 spheroid / PBMC co-culture; format: cell-based; settings: STM3480 0.05 micromolar, FIG. 1 and 2
Procedure: This experiment evaluates the effects of human donor Peripheral Blood Mononuclear Cells (PBMCs) to attack and kill fluorescently-labelled tumour cells in a co-culture assay. Briefly, test agents are incubated at different concentrations with SKOV3 human ovarian cancer cells in the presence or absence of human donor PBMCs and tumour growth is monitored continuously by real time imaging of the NucLight Red-labelled SKOV3 cells for several days.
NucLight Red (Incucyte, Essen Biosciences)-transduced SK-OV-3 (SK-OV-3-NLR) cells were transferred into Ultra-low attachment 96 well plates with spontaneous spheroid formation occurring over 48 hours. Peripheral blood mononuclear cells (PBMC) were isolated from healthy single donor buffy coats by density separation. Prior to co-culture of SK-OV-3-NLR spheroids with PBMC, SK-OV-3-NLR spheroids were treated with 10 ng/ml of interferon gamma (IFNγ). All treatments, including STM3480 and Pembrolizumab, were added at the point of co-culture in a final total volume of 200 μl/per well. Assay plates were transferred into an IncuCyte S3 and images were collected every 2 hours for 7 days. Following experimental completion, an analysis definition was applied to quantify the Total NLR Integrated Intensity present on a per well basis. Changes in spheroid size were quantified by plotting Total NLR Integrated Intensity against time.

[3] = Kasumi1, with increasing concentrations of STM3006
[4] = Kasumi1, with increasing concentrations of STM3480

Nc1ncn([C@@H]2O[C@H](CO)[C@@H](O)[C@H]2O)c(=O)n1 [5′-azacitidine]
change in IC50 of the standard of care (Kasumi1 AML cell line; [3]): No change
change in IC50 of the standard of care (Kasumi1 AML cell line; [4]): No change

O=C(NCc1cn2cc(CNCC3CCCCC3)ccc2n1)c1cc(=O)n2ccccc2n1 [STM2457]
AML growth (AML): reduction
differentiation and apoptosis (AML): increase

CC1(C)CCN(Cc2ccc3nc(Cn4cc(-c5cc(Br)cc6[nH]ncc56)nn4)cn3c2)CC1 [STM3006, 6-bromo-4-[1-({6-[(4,4-dimethylpiperidin-1-yl)methyl]imidazo[1,2-a]pyridin-2-yl}methyl)-1H-1,2,3-triazol-4-yl]-1H-indazole]
interaction with venetoclax (MOLM13 AML cell line): synergistic
interaction with quizartinib ([1]; FLT3-mutant MOLM-14 AML cell line): additive
cell viability with increasing concentrations of METTL3 inhibitor ([1]; MOLM-14, combination with quizartinib): decreasing viability
cell viability with increasing concentrations of METTL3 inhibitor (Kasumi1 AML cell line; Kasumi1, combination with daunorubicin): decreasing viability
interaction with 5′-azacitidine (Kasumi1 AML cell line; Kasumi1 AML cell line): additive
interaction with cytarabine (Kasumi1 AML cell line; Kasumi1 AML cell line): additive
interaction with daunorubicin (Kasumi1 AML cell line; Kasumi1 AML cell line): additive
interaction with venetoclax (Kasumi1 AML cell line; Kasumi1 AML cell line): synergistic

O=C(NCc1ccc2cc(CNCC34CC(F)(C3)C4)[nH]c2c1)c1cc(=O)n2ccccc2n1 [STM3675, N-[(2-{[({3-fluorobicyclo[1.1.1]pentan-1-yl}methyl)amino]methyl}-1H-indol-6-yl)methyl]-4-oxo-4H-pyrido[1,2-a]pyrimidine-2-carboxamide]
interaction with venetoclax (MOLM13 AML cell line): synergistic
interaction with venetoclax (Kasumi1 AML cell line; Kasumi1 AML cell line): synergistic

Nc1ccn([C@@H]2O[C@H](CO)[C@@H](O)[C@@H]2O)c(=O)n1 [cytarabine]
change in IC50 of the standard of care (Kasumi1 AML cell line; [3]): No change
change in IC50 of the standard of care (Kasumi1 AML cell line; [4]): No change

COc1cccc2c1C(=O)c1c(O)c3c(c(O)c1C2=O)C[C@@](O)(C(C)=O)C[C@@H]3O[C@H]1C[C@H](N)[C@H](O)[C@H](C)O1 [daunorubicin]
change in IC50 of the standard of care (Kasumi1 AML cell line; [3]): No change
change in IC50 of the standard of care (Kasumi1 AML cell line; [4]): No change

CC1(C)CCC(CN2CCN(c3ccc(C(=O)NS(=O)(=O)c4ccc(NCC5CCOCC5)c([N+](=O)[O-])c4)c(Oc4cnc5[nH]ccc5c4)c3)CC2)=C(c2ccc(Cl)cc2)C1 [venetoclax, 4-{4-[(4′-chloro-5,5-dimethyl[3,4,5,6-tetrahydro[1,1′-biphenyl]]-2-yl)methyl]piperazin-1-yl}-N-(3-nitro-4-{[(oxan-4-yl)methyl]amino}benzene-1-sulfonyl)-2-[(1H-pyrrolo[2,3-b]pyridin-5-yl)oxy]benzamide]
change in IC50 of the standard of care (MOLM13 AML cell line; MOLM13, with increasing concentrations of STM3006): decreasing
change in IC50 of the standard of care (MOLM13 AML cell line; MOLM13, with increasing concentrations of STM3480): decreasing
change in IC50 of the standard of care (MOLM13 AML cell line; MOLM13, with increasing concentrations of STM3675): decreasing
IC50 (Kasumi1 AML cell line; in the presence of 316.2 nM STM3480, read-out: venetoclax IC50): 50.9 nM
IC50 (Kasumi1 AML cell line; in the presence of 1000 nM STM3480, read-out: venetoclax IC50): 22.2 nM
IC50 (Kasumi1 AML cell line; venetoclax alone, read-out: IC50 of venetoclax): 238 nM
change in IC50 of the standard of care (Kasumi1 AML cell line; [3]): decreasing
change in IC50 of the standard of care (Kasumi1 AML cell line; [4]): decreasing
change in IC50 of the standard of care (Kasumi1 AML cell line; Kasumi1, with increasing concentrations of STM3675): decreasing

Pembrolizumab: anti-PD1 antibody [reference compound]
tumour viability (normalized NucLight Red [NLR] fluorescence) against time [2]: greater decline in viable tumour cells
